Assay results reported in PMC5268738, “A sequential multi-target Mps1 phosphorylation cascade promotes spindle checkpoint signaling” (eLife, 2017).

Tests used:
[1] = system: Bub1 S459 phosphorylation in HeLa cells; conditions: nocodazole and MG132; reversine 1 µM
Description: HeLa Tet-On cells were initially purchased from Clontech (Mountain View, CA), and were cultured in Dulbecco’s Modified Eagle Medium (DMEM, Invitrogen, Carlsbad, CA) supplemented with 10% fetal bovine serum and 2 mM L-glutamine. The cells were authenticated by genome sequencing and metaphase chromosome spread, and were routinely checked by 4',6-diamidino-2-phenylindole (DAPI) staining to ascertain that they were free of mycoplasma contamination. For G1/S synchronization, cells were treated with 2 mM thymidine (Sigma, St. Louis, MO) for 14–16 hr. For mitotic arrest, cells were treated with 330 nM or 1 µM nocodazole (Sigma) or 100 nM taxol (Sigma) for 12–14 hr. Other chemicals used in this study were: RO3306 (Sigma) at 20 µM, BI 2536 (Selleck Chemicals, Houston, TX) at 1 µM, MG132 (Selleck Chemicals) at 10 µM, okadaic acid (LC lab, Woburn, MA) at 500 nM, and reversine (Cayman Chemical, Ann Arbor, MI) at 1 µM.

[2] = system: N-terminal fragment of Cdc20 (residues 1–170, Cdc20^N); experiment: in vitro pull-down of Mps1-treated Mad1^E–Mad2 by Cdc20^N beads; type: binding, human; conditions: Ni^2+ beads with Cdc20^N170-His6; Mad1 pre-treated with kinase domain of Mps1; anti-Mad1 blot
Description: Expression of Cdc20-His6 proteins containing the N-terminal regions of Cdc20 was induced by 1 mM isopropyl β-D-1-thiogalactopyranoside (IPTG) at 37 °C for 6 h. Harvested pellets were lysed in denaturing lysis buffer (100 mM NaH2PO4, 10 mM Tris-HCl, pH 8.0, 8 M Urea), and incubated overnight by gentle rocking at room temperature. After centrifugation, the supernatants were incubated with pre-equilibrated Ni^2+-NTA beads (Qiagen). Protein-bound beads were washed with 15 volumes of denaturing wash buffer (100 mM NaH2PO4, 10 mM Tris-HCl, pH 6.3, 8 M Urea). The proteins were then eluted with denaturing elution buffer (100 mM NaH2PO4, 10 mM Tris-HCl, pH 4.5, 8 M Urea). The eluted proteins were then dialyzed into the storage buffer (50 mM Tris, pH 8.0, 200 mM NaCl, 5% glycerol, 1 mM β-mercaptoethanol). […]
For kinase assays, 1 μM Cdc20^ΔN60, 40 μM Mad1^E–Mad2, or 400 nM Bub1^ΔK–Bub3 was incubated with 40 nM Bub1, 500 nM Mps1, and/or 50 nM Cdk1–Cyclin B1 at room temperature for 30 min in the kinase buffer (25 mM Tris-HCl, pH 7.7, 100 mM NaCl, 10 mM MgCl2, 5 mM NaF, 20 mM β-glycerophosphate, 0.1 mM Na3VO4 and 1 mM DTT) supplemented with 1 mM ATP. The reaction mixtures were stopped with the appropriate kinase inhibitors for further protein-binding assays, or quenched with the SDS loading buffer and analyzed by Coomassie blue staining or Western blotting. […]

APC/C^Cdc20 = APC/C^Cdc20 inhibition by MCC components (securin ubiquitination assay); type: biochemical, Xenopus APC/C, human Cdc20; conditions: Bub1–Mad1 mixture, Cdc20^ΔN60, Mad2^Mono, BubR1^N; reversine 10 μM where used

binding of Mps1-treated Mad1^E–Mad2 to Cdc20^N (in words) [2]: greatly reduced this interaction
SMILES: c1nc2nc(Nc3ccc(N4CCOCC4)cc3)nc(NC3CCCCC3)c2[nH]1 [reversine, reference compound]
Bub1 S459 phosphorylation in mitosis (in words) [1]: reduced | APC/C^Cdc20 inhibition by the MCC mixture with Bub1–Mad1 mixture (in words) (APC/C^Cdc20): greatly weakened APC/C^Cdc20 inhibition by the MCC mixture
